Results as given in patent US12351580B2, “NLRP3 modulators” (Innate Tumor Immunity, Inc., priority 2017, dated 2025).
pEC50: −log10 of the molar value.

Experiments:
TLR8 = target: T1, TLR8 (Homo sapiens, UniProt Q9NR97); experiment: In vitro human TLR8 binding reporter assay (HEK-Blue, NF-kB/AP1-inducible SEAP); type: cell-based; conditions: activity range symbols
T1 construct: host or cells: HEK-Blue cells (human HEK) co-expressing TLR8 and an NF-kB/AP1-inducible SEAP reporter
T1 sequence (Q9NR97 27-1041): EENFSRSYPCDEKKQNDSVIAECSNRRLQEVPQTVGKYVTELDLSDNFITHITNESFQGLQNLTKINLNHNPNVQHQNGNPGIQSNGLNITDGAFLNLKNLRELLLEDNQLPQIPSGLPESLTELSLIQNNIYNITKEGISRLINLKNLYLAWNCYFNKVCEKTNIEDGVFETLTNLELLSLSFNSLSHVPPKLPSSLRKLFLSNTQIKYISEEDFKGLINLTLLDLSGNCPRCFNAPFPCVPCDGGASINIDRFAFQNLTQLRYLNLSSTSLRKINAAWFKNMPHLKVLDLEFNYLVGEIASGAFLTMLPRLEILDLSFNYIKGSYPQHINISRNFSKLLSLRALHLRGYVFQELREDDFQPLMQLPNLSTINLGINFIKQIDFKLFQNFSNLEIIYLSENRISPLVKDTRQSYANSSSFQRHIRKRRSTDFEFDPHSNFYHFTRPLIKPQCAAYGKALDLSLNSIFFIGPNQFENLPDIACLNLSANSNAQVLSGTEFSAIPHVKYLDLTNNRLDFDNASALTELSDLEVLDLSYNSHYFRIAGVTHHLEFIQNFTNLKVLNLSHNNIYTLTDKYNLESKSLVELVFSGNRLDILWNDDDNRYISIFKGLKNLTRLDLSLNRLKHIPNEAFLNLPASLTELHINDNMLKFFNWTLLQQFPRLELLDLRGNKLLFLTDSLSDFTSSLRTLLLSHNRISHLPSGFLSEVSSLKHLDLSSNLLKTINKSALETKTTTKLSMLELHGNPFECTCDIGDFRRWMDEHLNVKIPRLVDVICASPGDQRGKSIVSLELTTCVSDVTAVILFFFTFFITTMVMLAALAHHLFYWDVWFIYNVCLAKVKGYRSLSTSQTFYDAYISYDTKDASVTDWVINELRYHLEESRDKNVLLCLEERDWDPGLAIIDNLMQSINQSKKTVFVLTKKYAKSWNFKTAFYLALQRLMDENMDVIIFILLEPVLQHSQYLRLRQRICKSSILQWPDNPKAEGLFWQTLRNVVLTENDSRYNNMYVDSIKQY
Procedure, shortened: (§1)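 Reporter cells are plated at 15,000 per well and rested 24 h. Next day, test compounds or DMSO are dispensed, followed by 18 h incubation at 37 °C, 5% CO2.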

TLR7 = target: T2, TLR7 (Homo sapiens, UniProt Q9NYK1); experiment: In vitro human TLR7 binding reporter assay (HEK-Blue, NF-kB/AP1-inducible SEAP); type: cell-based; conditions: activity range symbols
T2 construct: host or cells: HEK-Blue cells (human HEK) co-expressing TLR7 and an NF-kB/AP1-inducible SEAP reporter
T2 sequence (Q9NYK1 27-1049): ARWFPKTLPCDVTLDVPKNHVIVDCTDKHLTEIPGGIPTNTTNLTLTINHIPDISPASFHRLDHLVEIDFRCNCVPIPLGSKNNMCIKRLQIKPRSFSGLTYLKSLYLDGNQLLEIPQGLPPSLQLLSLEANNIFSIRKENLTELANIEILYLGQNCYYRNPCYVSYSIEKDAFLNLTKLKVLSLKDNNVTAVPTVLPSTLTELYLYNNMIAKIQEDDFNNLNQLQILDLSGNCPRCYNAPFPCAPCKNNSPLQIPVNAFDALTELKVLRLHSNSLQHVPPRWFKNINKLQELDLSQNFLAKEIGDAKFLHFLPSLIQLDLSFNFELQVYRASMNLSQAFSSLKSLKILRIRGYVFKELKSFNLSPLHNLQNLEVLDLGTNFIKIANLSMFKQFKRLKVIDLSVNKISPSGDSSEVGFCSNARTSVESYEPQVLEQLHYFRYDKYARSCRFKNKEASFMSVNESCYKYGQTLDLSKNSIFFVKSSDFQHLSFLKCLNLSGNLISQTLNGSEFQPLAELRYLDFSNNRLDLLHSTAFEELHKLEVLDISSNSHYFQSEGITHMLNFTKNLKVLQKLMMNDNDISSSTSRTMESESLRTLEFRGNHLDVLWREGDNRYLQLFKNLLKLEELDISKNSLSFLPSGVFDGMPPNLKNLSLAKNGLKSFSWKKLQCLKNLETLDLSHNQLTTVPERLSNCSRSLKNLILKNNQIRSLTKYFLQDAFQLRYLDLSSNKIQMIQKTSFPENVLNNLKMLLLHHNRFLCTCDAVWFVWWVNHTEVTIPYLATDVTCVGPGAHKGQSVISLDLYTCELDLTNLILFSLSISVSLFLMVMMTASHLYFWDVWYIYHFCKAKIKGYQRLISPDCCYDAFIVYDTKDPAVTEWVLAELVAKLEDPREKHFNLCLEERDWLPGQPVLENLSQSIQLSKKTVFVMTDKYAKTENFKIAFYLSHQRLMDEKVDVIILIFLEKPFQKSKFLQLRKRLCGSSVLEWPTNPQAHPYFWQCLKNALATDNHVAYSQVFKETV
Procedure, shortened: as §1

Row | Structure (SMILES) | pEC50 (TLR8) | pEC50 (TLR7)
1 | Nc1nc2cc(-c3ccccc3F)ccc2c2[nH]c(CN3CCCC3=O)nc12 [Compound 284, 1-[[4-amino-7-(2-fluorophenyl)-1H-imidazo[4,5-c]quinolin-2-yl]methyl]pyrrolidin-2-one] | < 4.00 | < 4.00
2 | Cc1cccc(-c2ccc3c(c2)nc(N)c2nc(CN4CCCC4=O)[nH]c23)c1 [Compound 286, 1-[[4-amino-7-(3-methylphenyl)-1H-imidazo[4,5-c]quinolin-2-yl]methyl]pyrrolidin-2-one] | < 4.00 | < 4.00
3 | COc1cccc(-c2ccc3c(c2)nc(N)c2nc(CN4CCCC4=O)[nH]c23)c1 [Compound 287, 1-[[4-amino-7-(3-methoxyphenyl)-1H-imidazo[4,5-c]quinolin-2-yl]methyl]pyrrolidin-2-one] | < 4.00 | < 4.00
4 | N#Cc1cccc(-c2ccc3c(c2)nc(N)c2nc(CN4CCCC4=O)[nH]c23)c1 [Compound 288, 3-[4-amino-2-[(2-oxopyrrolidin-l-yl)methyl]-1H-imidazo[4,5-c]quinolin-7-yl]benzonitrile] | < 4.00 | < 4.00
5 | Nc1nc2cc(-c3cccc(F)c3)ccc2c2[nH]c(CN3CCCC3=O)nc12 [Compound 289, 1-[[4-amino-7-(3-fluorophenyl)-1H-imidazo[4,5-c]quinolin-2-yl]methyl]pyrrolidin-2-one] | < 4.00 | < 4.00
6 | Nc1nc2cc(-n3cccn3)ccc2c2[nH]c(CN3CCCC3=O)nc12 [Compound 295, 1-[(4-amino-7-pyrazol-1-yl-1H-imidazo[4,5-c]quinolin-2-yl)methyl]pyrrolidin-2-one] | < 4.00 | < 4.00
7 | Cc1cnn(-c2ccc3c(c2)nc(N)c2nc(CN4CCCC4=O)[nH]c23)c1 [Compound 296, 1-[[4-amino-7-(4-methylpyrazol-1-yl)-1H-imidazo[4,5-c]quinolin-2-yl]methyl]pyrrolidin-2-one] | < 4.00 | < 4.00
8 | Nc1nc2cc(C3CCOCC3)ccc2c2[nH]c(CN3CCCC3=O)nc12 [Compound 298, 1-[[4-amino-7-(oxan-4-yl)-1H-imidazo[4,5-c]quinolin-2-yl]methyl]pyrrolidin-2-one] | < 4.00 | 4.70 to 6.00

Other lines, results leading:

Row | pEC50 (TLR8) | pEC50 (TLR7) | Structure (SMILES)
9 | < 4.00 | < 4.00 | Nc1nc2cc(-c3cccc(Cl)c3)ccc2c2[nH]c(CN3CCCC3=O)nc12 [Compound 285, 1-[[4-amino-7-(3-chlorophenyl)-1H-imidazo[4,5-c]quinolin-2-yl]methyl]pyrrolidin-2-one]
10 | < 4.00 | < 4.00 | Cc1ccc(-c2ccc3c(c2)nc(N)c2nc(CN4CCCC4=O)[nH]c23)cc1 [Compound 291, 1-[[4-amino-7-(4-methylphenyl)-1H-imidazo[4,5-c]quinolin-2-yl]methyl]pyrrolidin-2-one]
11 | < 4.00 | 4.00 to 4.70 | Nc1nc2cc(Br)ccc2c2[nH]c(CN3CCCC3=O)nc12 [Compound 294, 1-[(4-amino-7-bromo-1H-imidazo[4,5-c]quinolin-2-yl)methyl]pyrrolidin-2-one]
12 | < 4.00 | < 4.00 | Cc1ccn(-c2ccc3c(c2)nc(N)c2nc(CN4CCCC4=O)[nH]c23)n1 [Compound 301, 1-[[4-amino-7-(3-methylpyrazol-1-yl)-1H-imidazo[4,5-c]quinolin-2-yl]methyl]pyrrolidin-2-one]
13 | < 4.00 | < 4.00 | Nc1nc2cc(C3CCCCC3)ccc2c2[nH]c(CN3CCCC3=O)nc12 [Compound 302, 1-[(4-amino-7-cyclohexyl-1H-imidazo[4,5-c]quinolin-2-yl)methyl]pyrrolidin-2-one]
14 | 4.00 to 4.70 | 4.00 to 4.70 | CC(c1nc2c(N)nc3cc(Br)ccc3c2[nH]1)N1CCCC1=O (stereo not shown) [Compound 303, 1-[1-(4-amino-7-bromo-1H-imidazo[4,5-c]quinolin-2-yl)ethyl]pyrrolidin-2-one]
